Test results taken from patent US20160158381A1, “NOVEL NANOLIPOSOMES AND THEIR USE FOR THE TREATMENT OF AMYLOID PROTEIN DISEASES” (DEPARTMENT OF VETERANS AFFAIRS, TECHNOLOGY TRANSFER PROGRAM, priority 2013, published 2016).
“Also recorded” adds a separate entry of the source.

Legend:
Format in all cases: cell-based
[1] = test system: human ex-vivo adipose arterioles exposed to LC; assay: Arteriole vasoreactivity after LC exposure with or without NL; settings: LC+NL co-treated with L-NAME 5 mmol
Method: 9 male subjects (64±3 years old) without AL/diabetes/vascular disease undergoing routine abdominal surgery donated subcutaneous adipose tissue obtained by surgeons. Arterioles (˜[…]) were isolated, cannulated and pressurized (60 mmHg). Baseline/control vasoreactivity was performed following preconstriction with endothelin-1 (60% baseline diameter) and successive administration of acetylcholine (10-9-10-4M) to measure endothelium-dependent dilation and papaverine (10^-4M) to measure smooth-muscle dependent dilation (videomicrometer). After washing, vessels were exposed to LC (20 μg/mL, physiologic concentration of circulating LC in patients) with or without NL (1:10 LC:NL mass ratio) for 1 hour and a second vasoreactivity response performed. In additional arterioles, LC+NL were co-treated with L-NG-nitroarginine methyl ester (L-NAME, 5 mmol, Sigma-Aldrich).
Data is expressed as means±standard error of means. Baseline control and post-treatment dilator response were compared using paired Student's t-test. Overall acetylcholine dilator response was analyzed by deriving the log effective concentration 50% (log EC50) using nonlinear regression and variable slope and least squares fit. For group analyses, one-way or two way analysis of variance with Bonferroni post-test were utilized (GraphPad Prism 5.0, San Diego Calif.).

[2] = test system: Human umbilical vein endothelial cells (HUVECs); assay: Endothelial cell nitric oxide production (DAF-2 diacetate fluorescence); settings: 1 hour exposure, acetylcholine 10^-4M at 45 minutes
Method: Human umbilical vein endothelial cells (HUVECs) were exposed to Aβ42±NLPA or control for 1-hour, acetylcholine (10^-4M) was administered at 45 minutes and nitric oxide (NO production) was measured using DAF-2 diacetate fluorescence (1 hour compared to baseline fluorescence).

[3] = test system: human abdominal subcutaneous adipose arterioles exposed to Aβ42; assay: Arteriole vasoreactivity after Aβ42 exposure with or without nanoliposomes; settings: for dilator responses to acetylcholine and papaverine (endothelial function): Aβ42 2 μM with or without nanoliposomes (1:10 Aβ:NLPA mass ratio), one hour
Method: Human abdominal subcutaneous arterioles were isolated from subjects without vascular disease, pressurized and constricted with endothelin-1. Baseline (control) dilation response was measured following acetylcholine (10_9-10-4M) and papaverine (10^-4M) exposure; after washing, arterioles were exposed to Aβ42 (2 μM)±nanoliposomes (NLPA, 70% cholesterol, 25% phosphatidylcholine, 5% phosphatidic acid, 1:10 Aβ:NLPA mass ratio) and dilator response was measured.

[4] = test system: human ex-vivo adipose arterioles exposed to soluble amyloid proteins (light chain); assay: Arteriole endothelial function after LC exposure with clusterin-incorporated nanoliposomes; settings: separate experiments; nanoliposomes of cholesterol and phosphatidylcholine; co-treatment with light chain
Description: Nanoliposomes were composed of cholesterol, phosphatidylcholine and stearyl triphenylphosphonium (STTP) and clusterin was incorporated by noncovalent means.

COC(=O)[C@@H](N)CCCNC(=N)N[N+](=O)[O-] [L-NAME, L-NG-nitroarginine methyl ester]
effect of L-NAME on NL protective effect (dilator response) [1]: abolished NL protective effect; also recorded: Nanoliposome protective effect was reversed

Aβ42: Aβ42 peptide, one of the amyloid proteins involved in AD
NO production [2]: reduced endothelial cell NO gas production | NO production ([2]; listed as Aβ): reduced | dilation to acetylcholine 10^−4M ([3]; Aβ42 2 μM with or without NLPA, 1:10 Aβ:NLPA mass ratio): 61.5±5.7% | dilator responses to acetylcholine and papaverine (endothelial function) [3]: caused endothelial dysfunction | dilator responses to acetylcholine and papaverine (endothelial function) ([3]; listed as Aβ): reduced

free clusterin: free clusterin without nanoliposome; clusterin is apolipoprotein J, a chaperone protein
dilator response to acetylcholine versus baseline [4]: +3.1%
